According to patent publication US12077503B2, “Substituted cyclic amides and their use as herbicides” (FMC CORPORATION, priority 2015, dated 2024):

Key:
Type in all cases: in vivo
[1] = tested on: blackgrass (Alopecurus myosuroides); assay: Test A postemergence; details: Alopecurus myosuroides, post-emergence, 240 h, postemergence; for pest or weed control at 125 g/ha: 125 g ai/ha, visual injury vs untreated controls after approx. 10 d, 0 = no effect, 100 = complete control, read-out: Blackgrass plant response rating (0 to 100 scale); for pest or weed control at 500 g/ha: 500 g ai/ha, 0 to 100 scale, 0 is no effect, 100 is complete control, read-out: Blackgrass plant response rating
Procedure, shortened: (§1)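 Compounds were formulated in a non-phytotoxic solvent mixture with surfactant and applied as a preemergence directed soil spray after seeding, or sprayed postemergence over plants 2 to 10 cm tall at the one- to two-leaf stage. Evaluation after about 10 d compared treated with untreated controls, using a scale from 0 (no effect) to 100 (complete control).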

[2] = tested on: pigweed (Amaranthus retroflexus); assay: Test A postemergence; details: Amaranthus retroflexus, post-emergence, 240 h, postemergence; for pest or weed control at 125 g/ha: 125 g ai/ha, visual injury vs untreated controls after approx. 10 d, 0 = no effect, 100 = complete control, read-out: Pigweed plant response rating (0 to 100 scale); for pest or weed control at 500 g/ha: 500 g ai/ha, 0 to 100 scale, 0 is no effect, 100 is complete control, read-out: Pigweed plant response rating
Procedure, shortened: as §1

[3] = tested on: ryegrass, Italian (Italian ryegrass, Lolium multiflorum); assay: Test A postemergence; details: Lolium multiflorum, post-emergence, 240 h, postemergence; for pest or weed control at 125 g/ha: 125 g ai/ha, visual injury vs untreated controls after approx. 10 d, 0 = no effect, 100 = complete control, read-out: Ryegrass, Italian plant response rating (0 to 100 scale); for pest or weed control at 500 g/ha: 500 g ai/ha, 0 to 100 scale, 0 is no effect, 100 is complete control, read-out: Ryegrass, Italian plant response rating
Procedure, shortened: as §1

[4] = tested on: giant foxtail (Setaria faberii); assay: Test A postemergence; details: Setaria faberi, post-emergence, 240 h, postemergence; for pest or weed control at 125 g/ha: 125 g ai/ha, visual injury vs untreated controls after approx. 10 d, 0 = no effect, 100 = complete control, read-out: Foxtail, Giant plant response rating (0 to 100 scale); for pest or weed control at 500 g/ha: 500 g ai/ha, 0 to 100 scale, 0 is no effect, 100 is complete control, read-out: Foxtail, Giant plant response rating
Procedure, shortened: as §1

[5] = tested on: wheat (Triticum aestivum); assay: Test A postemergence; details: Triticum aestivum, post-emergence, 240 h, postemergence; for plant injury at 125 g/ha: 125 g ai/ha, visual injury vs untreated controls after approx. 10 d, 0 = no effect, 100 = complete control, read-out: Wheat plant response rating (0 to 100 scale); for plant injury at 500 g/ha: 500 g ai/ha, 0 to 100 scale, 0 is no effect, 100 is complete control, read-out: Wheat plant response rating
Procedure, shortened: as §1

[6] = tested on: Galium (catchweed bedstraw, Galium aparine); assay: Test A postemergence; details: Galium, post-emergence, 240 h, postemergence; for pest or weed control at 125 g/ha: 125 g ai/ha, visual injury vs untreated controls after approx. 10 d, 0 = no effect, 100 = complete control, read-out: Galium plant response rating (0 to 100 scale); for pest or weed control at 500 g/ha: 500 g ai/ha, 0 to 100 scale, 0 is no effect, 100 is complete control, read-out: Galium plant response rating
Procedure, shortened: as §1

[7] = tested on: corn (Zea mays); assay: Test A postemergence; details: Zea mays, post-emergence, 240 h, postemergence; for plant injury at 125 g/ha: 125 g ai/ha, visual injury vs untreated controls after approx. 10 d, 0 = no effect, 100 = complete control, read-out: Corn plant response rating (0 to 100 scale); for plant injury at 500 g/ha: 500 g ai/ha, 0 to 100 scale, 0 is no effect, 100 is complete control, read-out: Corn plant response rating
Procedure, shortened: as §1

[8] = tested on: Kochia (Kochia scoparia); assay: Test A postemergence; details: Bassia scoparia, post-emergence, 240 h, postemergence; for pest or weed control at 125 g/ha: 125 g ai/ha, visual injury vs untreated controls after approx. 10 d, 0 = no effect, 100 = complete control, read-out: Kochia plant response rating (0 to 100 scale); for pest or weed control at 500 g/ha: 500 g ai/ha, 0 to 100 scale, 0 is no effect, 100 is complete control, read-out: Kochia plant response rating
Procedure, shortened: as §1

[9] = tested on: ragweed (common ragweed, Ambrosia elatior); assay: Test A postemergence; details: Ambrosia artemisiifolia, post-emergence, 240 h, postemergence; for pest or weed control at 125 g/ha: 125 g ai/ha, visual injury vs untreated controls after approx. 10 d, 0 = no effect, 100 = complete control, read-out: Ragweed plant response rating (0 to 100 scale); for pest or weed control at 500 g/ha: 500 g ai/ha, 0 to 100 scale, 0 is no effect, 100 is complete control, read-out: Ragweed plant response rating
Procedure, shortened: as §1

[10] = tested on: barnyardgrass (Echinochloa crus-galli); assay: Test A preemergence; details: Echinochloa crus-galli, pre-emergence, 240 h, preemergence, 0 to 100 scale where 0 is no effect and 100 is complete control, read-out: Barnyardgrass plant response rating; for pest or weed control at 125 g/ha: 125 g ai/ha, visual injury rating, approximately 10 d; for pest or weed control at 500 g/ha: 500 g ai/ha
Procedure, shortened: as §1

[11] = tested on: pigweed (Amaranthus retroflexus); assay: Test A preemergence; details: Amaranthus retroflexus, pre-emergence, 240 h, preemergence, 0 to 100 scale where 0 is no effect and 100 is complete control, read-out: Pigweed plant response rating; for pest or weed control at 125 g/ha: 125 g ai/ha, visual injury rating, approximately 10 d; for pest or weed control at 500 g/ha: 500 g ai/ha
[12] = tested on: ryegrass, Italian (Italian ryegrass, Lolium multiflorum); assay: Test A preemergence; details: Lolium multiflorum, pre-emergence, 240 h, preemergence, 0 to 100 scale where 0 is no effect and 100 is complete control, read-out: Ryegrass, Italian plant response rating; for pest or weed control at 125 g/ha: 125 g ai/ha, visual injury rating, approximately 10 d; for pest or weed control at 500 g/ha: 500 g ai/ha
Procedure, shortened: as §1

[13] = tested on: Kochia (Kochia scoparia); assay: Test A preemergence; details: Bassia scoparia, pre-emergence, 240 h, preemergence, 0 to 100 scale where 0 is no effect and 100 is complete control, read-out: Kochia plant response rating; for pest or weed control at 125 g/ha: 125 g ai/ha, visual injury rating, approximately 10 d; for pest or weed control at 500 g/ha: 500 g ai/ha
Procedure, shortened: as §1

[14] = tested on: ragweed (common ragweed, Ambrosia elatior); assay: Test A preemergence; details: Ambrosia artemisiifolia, pre-emergence, 240 h, preemergence, 0 to 100 scale where 0 is no effect and 100 is complete control, read-out: Ragweed plant response rating; for pest or weed control at 125 g/ha: 125 g ai/ha, visual injury rating, approximately 10 d; for pest or weed control at 500 g/ha: 500 g ai/ha
Procedure, shortened: as §1

CN1C[C@H](c2ccc3c(c2)OC(F)(F)O3)[C@@H](C(=O)Nc2ccc(F)c(F)c2F)C1=O [Compound 1204]
pest or weed control at 125 g/ha [1]: 50% | pest or weed control at 500 g/ha [1]: 70% | pest or weed control at 125 g/ha [2]: 70% | pest or weed control at 500 g/ha [2]: 80% | pest or weed control at 125 g/ha [3]: 70% | pest or weed control at 500 g/ha [3]: 80% | pest or weed control at 125 g/ha [4]: 90% | pest or weed control at 500 g/ha [4]: 90% | plant injury at 125 g/ha [5]: 60% | plant injury at 500 g/ha [5]: 70% | pest or weed control at 125 g/ha [6]: 50% | pest or weed control at 500 g/ha [6]: 60% | plant injury at 125 g/ha [7]: 70% | plant injury at 500 g/ha [7]: 80% | pest or weed control at 125 g/ha [8]: 80% | pest or weed control at 500 g/ha [8]: 80% | pest or weed control at 125 g/ha [9]: 20% | pest or weed control at 500 g/ha [9]: 60% | pest or weed control at 125 g/ha [10]: 90% | pest or weed control at 500 g/ha [10]: 90% | pest or weed control at 125 g/ha [11]: 70% | pest or weed control at 500 g/ha [11]: 100% | pest or weed control at 125 g/ha [12]: 70% | pest or weed control at 500 g/ha [12]: 90% | pest or weed control at 125 g/ha [13]: 80% | pest or weed control at 500 g/ha [13]: 80% | pest or weed control at 125 g/ha [14]: 90% | pest or weed control at 500 g/ha [14]: 90%

COc1ccc([C@H]2CN(C)C(=O)[C@@H]2C(=O)Nc2ccccc2F)c(OC)c1 [Compound 1215]
pest or weed control at 125 g/ha [1]: 0% | pest or weed control at 500 g/ha [1]: 0% | pest or weed control at 125 g/ha [2]: 0% | pest or weed control at 500 g/ha [2]: 0% | pest or weed control at 125 g/ha [3]: 0% | pest or weed control at 500 g/ha [3]: 0% | pest or weed control at 125 g/ha [4]: 70% | pest or weed control at 500 g/ha [4]: 90% | plant injury at 125 g/ha [5]: 0% | plant injury at 500 g/ha [5]: 0% | pest or weed control at 125 g/ha [6]: 0% | pest or weed control at 500 g/ha [6]: 0% | plant injury at 125 g/ha [7]: 0% | plant injury at 500 g/ha [7]: 0% | pest or weed control at 125 g/ha [8]: 0% | pest or weed control at 500 g/ha [8]: 30% | pest or weed control at 125 g/ha [9]: 0% | pest or weed control at 500 g/ha [9]: 0% | pest or weed control at 125 g/ha [10]: 90% | pest or weed control at 500 g/ha [10]: 100% | pest or weed control at 125 g/ha [11]: 0% | pest or weed control at 500 g/ha [11]: 0% | pest or weed control at 125 g/ha [12]: 0% | pest or weed control at 500 g/ha [12]: 0% | pest or weed control at 125 g/ha [13]: 0% | pest or weed control at 500 g/ha [13]: 90% | pest or weed control at 125 g/ha [14]: 0% | pest or weed control at 500 g/ha [14]: 0%

COc1cc([C@H]2CN(C)C(=O)[C@@H]2C(=O)Nc2ccccc2F)cc(OC)c1OC [Compound 1217]
pest or weed control at 125 g/ha [1]: 0% | pest or weed control at 500 g/ha [1]: 0% | pest or weed control at 125 g/ha [2]: 0% | pest or weed control at 500 g/ha [2]: 0% | pest or weed control at 125 g/ha [3]: 0% | pest or weed control at 500 g/ha [3]: 0% | pest or weed control at 125 g/ha [4]: 90% | pest or weed control at 500 g/ha [4]: 90% | plant injury at 125 g/ha [5]: 0% | plant injury at 500 g/ha [5]: 0% | pest or weed control at 125 g/ha [6]: 0% | pest or weed control at 500 g/ha [6]: 0% | plant injury at 125 g/ha [7]: 0% | plant injury at 500 g/ha [7]: 0% | pest or weed control at 125 g/ha [8]: 0% | pest or weed control at 500 g/ha [8]: 0% | pest or weed control at 125 g/ha [9]: 0% | pest or weed control at 500 g/ha [9]: 0% | pest or weed control at 125 g/ha [10]: 90% | pest or weed control at 500 g/ha [10]: 100% | pest or weed control at 125 g/ha [11]: 0% | pest or weed control at 500 g/ha [11]: 0% | pest or weed control at 125 g/ha [12]: 0% | pest or weed control at 500 g/ha [12]: 0% | pest or weed control at 125 g/ha [13]: 0% | pest or weed control at 500 g/ha [13]: 0% | pest or weed control at 125 g/ha [14]: 0% | pest or weed control at 500 g/ha [14]: 0%
